Experimental data from patent publication US20130273649A1, “Culture medium for pluripotent stem cells” (UNIVERSITY OF SOUTHERN CALIFORNIA, priority 2012, published 2013).

Columns and labels:
β-catenin = assay: Western blot of nuclear β-catenin in mouse EpiSCs; type: cell-based; conditions: 3 μM CHIR 12 h
Method: (A) Western blot analysis of cytoplasmic, nuclear and total β-catenin levels in CD1 mouse EpiSCs overexpressing Flag-tagged Axin1 or Axin2. Cells were either untreated or treated with 3 μM CHIR for 12 h. (B) Immunostaining of CD1 mouse EpiSCs overexpressing Flag-tagged Axin2 (C) Co-IP of Flag or β-catenin in CD1 mouse EpiSCs overexpressing empty vector or Flag-tagged Axin2. Cells were treated with 3 μM CHIR for 12 h (D) Immunostaining of ΔNβ-catenin-ERT2-overexpressing CD1 mouse EpiSCs before and after treatment with 1 μM 4-OHT. (E). Western blot analysis of cytoplasmic and nuclear ΔNβ-catenin-ERT2 levels after treatment with 1 μM 4-OHT for 24 h. (F). Phase contrast image of ΔNβ-catenin-ERT2-EpiSCs after 25 passages in basal medium only. (G) qRT-PCR analysis of Oct4, Nanog and Fgf5 mRNA levels in ΔNβ-catenin-ERT2-EpiSCs maintained in basal medium or basal medium plus FGF2/activin for 11 passages. Data represent mean±s.d. of three biological replicates. (H) Phase contrast image of ΔNβ-catenin-ERT2-EpiSCs after treatment with 1 μM 4-OHT for 24 h. […]
Next, we investigated how β-catenin mediates EpiSC self-renewal. […] To determine whether nuclear translocation of β-catenin is affected by Axin, we analyzed β-catenin protein levels in whole-cell, cytoplasmic and nuclear fractions before and after CHIR treatment. […] In Axin2-EpiSCs, Axin2 expression was mainly detected in the cytoplasm (FIG. 6B). […]

Axin2 = assay: Western blot of Axin2 in human ESCs; type: cell-based; conditions: human ESCs treated 24 h

Cc1c[nH]c(-c2cnc(NCCNc3ccc(C#N)cn3)nc2-c2ccc(Cl)cc2Cl)n1 [CHIR99021, 6-((2-((4-(2,4-Dichlorophenyl)-5-(4-methyl-1H-imidazol-2-yl)pyrimidin-2-yl)amino)ethyl)amino)nicotinonitrile]
nuclear β-catenin protein level (β-catenin; Axin2-EpiSCs): barely detectable
nuclear β-catenin protein level (β-catenin; vector-EpiSCs and Axin1-EpiSCs): dramatically increased
amount of Axin2 protein (Axin2): induced the expression of Axin2
